Here are results for seven cell lines from the supplement of paper PMC10307832.

What all share (test): relative viability (nuclei count vs DMSO), 5 days (fraction); higher = more cells survive
Compound in experiment [1]: C1CSC2=C(C(=O)N1)SC3=C2C=C(C=C3)O [kb NB 142-70] + CC(=O)c1c(C)c2cnc(Nc3ccc(N4CCNCC4)cn3)nc2n(C2CCCC2)c1=O [Palbociclib] (partner 0.5 µM)
The gist of the method:
(§1)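 Five library-drug doses in √10 steps were combined with a fixed anchor-drug dose, or a single drug was given alone, by pin tool to lung cancer cell lines in 1536-well plates the day after seeding. Nuclei were stained and counted after 5 days. Relative viability is the nuclei count in treated wells over that in vehicle wells, taken as the median of duplicate plates.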

Compound in experiment [2]: NCC(=O)Nc1ccc(-n2nc(C(F)(F)F)cc2-c2ccc3c(ccc4ccccc43)c2)cc1 + CC(C)C[C@H](NC(=O)[C@H](Cc1ccccc1)NC(=O)c1cnccn1)B(O)O [Bortezomib] (partner 0.002 µM)
The gist of the method: as §1

Compound in experiment [3]: NCC(=O)Nc1ccc(-n2nc(C(F)(F)F)cc2-c2ccc3c(ccc4ccccc43)c2)cc1 + NC(=O)Nc1cc(-c2cccc(F)c2)sc1C(=O)N[C@H]1CCCNC1 [AZD7762] (partner 0.2 µM)
The method in brief:
as §1

Compound in experiment [4]: C1CSC2=C(C(=O)N1)SC3=C2C=C(C=C3)O [kb NB 142-70] + CC(C)C[C@H](NC(=O)[C@H](Cc1ccccc1)NC(=O)c1cnccn1)B(O)O [Bortezomib] (partner 0.002 µM)
The gist of the method:
as §1

Compound in experiment [5]: C1CSC2=C(C(=O)N1)SC3=C2C=C(C=C3)O [kb NB 142-70] + C[C@@H](Oc1cc(-c2cnn(C3CCNCC3)c2)cnc1N)c1c(Cl)ccc(F)c1Cl [Crizotinib] (partner 1 µM)
The method in brief: as §1

On to HCC-15, for which the relative viability is 0.699 in experiment [1] (first compound 0.1 µM); 0.699 in experiment [1] (first compound 1 µM); 0.588 in experiment [1] (first compound 3.162 µM); 1.07 in experiment [2] (first compound 0.02 µM); 1.06 in experiment [2] (first compound 0.06325 µM); 1.06 in experiment [2] (first compound 0.2 µM). Also, the relative viability came out at 1.01 in experiment [2] (first compound 0.6325 µM); 0.996 in experiment [2] (first compound 2 µM); 1.28 in experiment [3] (first compound 0.02 µM); 1.13 in experiment [3] (first compound 0.06325 µM); 1.21 in experiment [3] (first compound 0.2 µM); 1.36 in experiment [3] (first compound 0.6325 µM). In addition, the relative viability in experiment [3] (first compound 2 µM) was found to be 1.06; in experiment [4] (first compound 0.1 µM) it was 0.972; in experiment [4] (first compound 1 µM), 1.1; in experiment [4] (first compound 3.162 µM), 1.1; in experiment [5] (first compound 0.1 µM) it was 0.773; in experiment [5] (first compound 1 µM) it was 0.85. The relative viability in experiment [5] (first compound 3.162 µM) worked out at 0.813.
On to HCC-44, for which the relative viability in experiment [1] (first compound 0.1 µM) amounted to 0.96; in experiment [1] (first compound 1 µM) it was 1; in experiment [1] (first compound 3.162 µM) it was 1.03; in experiment [2] (first compound 0.02 µM), 0.968; in experiment [2] (first compound 0.06325 µM), 0.872; in experiment [2] (first compound 0.2 µM) it was 0.946. Moreover, the relative viability in experiment [2] (first compound 0.6325 µM) is 0.875; in experiment [2] (first compound 2 µM), 0.87; in experiment [3] (first compound 0.02 µM) it was 1; in experiment [3] (first compound 0.06325 µM), 1.05; in experiment [3] (first compound 0.2 µM) it was 0.997; in experiment [3] (first compound 0.6325 µM) it was 1.01. The relative viability was 1.03 in experiment [3] (first compound 2 µM); 0.952 in experiment [4] (first compound 0.1 µM); 0.94 in experiment [4] (first compound 1 µM); 0.899 in experiment [4] (first compound 3.162 µM); 0.777 in experiment [5] (first compound 0.1 µM); 0.883 in experiment [5] (first compound 1 µM). For the same cell line, the relative viability in experiment [5] (first compound 3.162 µM) came to 0.907.
For the cell line HCC-78, the relative viability came out at 0.446 in experiment [1] (first compound 0.1 µM); 0.443 in experiment [1] (first compound 1 µM); 0.412 in experiment [1] (first compound 3.162 µM); 0.53 in experiment [2] (first compound 0.02 µM); 0.568 in experiment [2] (first compound 0.06325 µM); 0.496 in experiment [2] (first compound 0.2 µM). The relative viability was found to be 0.571 in experiment [2] (first compound 0.6325 µM); 0.505 in experiment [2] (first compound 2 µM); 0.77 in experiment [3] (first compound 0.02 µM); 0.597 in experiment [3] (first compound 0.06325 µM); 0.599 in experiment [3] (first compound 0.2 µM); 0.668 in experiment [3] (first compound 0.6325 µM). In addition, the relative viability in experiment [3] (first compound 2 µM) is 0.642; in experiment [4] (first compound 0.1 µM), 0.486; in experiment [4] (first compound 1 µM) it was 0.543; in experiment [4] (first compound 3.162 µM) it was 0.556; in experiment [5] (first compound 0.1 µM), 0.305; in experiment [5] (first compound 1 µM), 0.372. The relative viability in experiment [5] (first compound 3.162 µM) amounted to 0.353.
With NCI-H727, the relative viability in experiment [1] (first compound 0.1 µM) is 0.681; in experiment [1] (first compound 1 µM), 0.653; in experiment [1] (first compound 3.162 µM), 0.678; in experiment [2] (first compound 0.02 µM) it was 0.849; in experiment [2] (first compound 0.06325 µM), 0.977; in experiment [2] (first compound 0.2 µM), 0.724. Further, the relative viability in experiment [2] (first compound 0.6325 µM) amounted to 0.847; in experiment [2] (first compound 2 µM), 1.04; in experiment [3] (first compound 0.02 µM), 0.531; in experiment [3] (first compound 0.06325 µM), 0.53; in experiment [3] (first compound 0.2 µM), 0.58; in experiment [3] (first compound 0.6325 µM) it was 0.696. Further, the relative viability in experiment [3] (first compound 2 µM) is 0.599; in experiment [4] (first compound 0.1 µM), 0.897; in experiment [4] (first compound 1 µM) it was 1.1; in experiment [4] (first compound 3.162 µM), 1.02; in experiment [5] (first compound 0.1 µM) it was 0.752; in experiment [5] (first compound 1 µM), 1.06. Moreover, in experiment [5] (first compound 3.162 µM), the relative viability came out at 0.592.
As for NCI-H2087, the relative viability in experiment [1] (first compound 0.1 µM) is 0.282; in experiment [1] (first compound 1 µM) it was 0.252; in experiment [1] (first compound 3.162 µM), 0.215; in experiment [2] (first compound 0.02 µM), 0.818; in experiment [2] (first compound 0.06325 µM), 0.743; in experiment [2] (first compound 0.2 µM), 0.621. Besides, the relative viability came to 0.649 in experiment [2] (first compound 0.6325 µM); 0.896 in experiment [2] (first compound 2 µM); 1.29 in experiment [3] (first compound 0.02 µM); 1.24 in experiment [3] (first compound 0.06325 µM); 1.31 in experiment [3] (first compound 0.2 µM); 1.36 in experiment [3] (first compound 0.6325 µM). In addition, the relative viability in experiment [3] (first compound 2 µM) was determined as 1.23; in experiment [4] (first compound 0.1 µM), 0.821; in experiment [4] (first compound 1 µM) it was 0.88; in experiment [4] (first compound 3.162 µM) it was 0.755; in experiment [5] (first compound 0.1 µM), 0.562; in experiment [5] (first compound 1 µM), 0.903. In addition, in experiment [5] (first compound 3.162 µM), the relative viability is 0.868.
For BEN, the relative viability in experiment [1] (first compound 0.1 µM) worked out at 0.443; in experiment [1] (first compound 1 µM) it was 0.459; in experiment [1] (first compound 3.162 µM), 0.488; in experiment [2] (first compound 0.02 µM), 0.817; in experiment [2] (first compound 0.06325 µM), 0.852; in experiment [2] (first compound 0.2 µM) it was 0.763. Besides, the relative viability is 0.701 in experiment [2] (first compound 0.6325 µM); 0.576 in experiment [2] (first compound 2 µM); 0.627 in experiment [3] (first compound 0.02 µM); 0.76 in experiment [3] (first compound 0.06325 µM); 0.789 in experiment [3] (first compound 0.2 µM); 0.798 in experiment [3] (first compound 0.6325 µM). Moreover, the relative viability in experiment [3] (first compound 2 µM) came out at 0.628; in experiment [4] (first compound 0.1 µM) it was 0.942; in experiment [4] (first compound 1 µM), 0.669; in experiment [4] (first compound 3.162 µM), 0.418; in experiment [5] (first compound 0.1 µM), 0.791; in experiment [5] (first compound 1 µM) it was 0.906. Further, in experiment [5] (first compound 3.162 µM), the relative viability is 0.69.
For the cell line LCLC-103H, the relative viability in experiment [1] (first compound 0.1 µM) turned out to be 0.47; in experiment [1] (first compound 1 µM) it was 0.475; in experiment [1] (first compound 3.162 µM) it was 0.504; in experiment [2] (first compound 0.02 µM), 1.03; in experiment [2] (first compound 0.06325 µM) it was 1; in experiment [2] (first compound 0.2 µM), 1.13. Also, the relative viability in experiment [2] (first compound 0.6325 µM) was 1.07; in experiment [2] (first compound 2 µM) it was 1.1; in experiment [3] (first compound 0.02 µM), 0.796; in experiment [3] (first compound 0.06325 µM), 0.79; in experiment [3] (first compound 0.2 µM), 0.752; in experiment [3] (first compound 0.6325 µM), 0.812. The relative viability stood at 0.818 in experiment [3] (first compound 2 µM); 1.17 in experiment [4] (first compound 0.1 µM); 1.09 in experiment [4] (first compound 1 µM); 1.07 in experiment [4] (first compound 3.162 µM); 0.997 in experiment [5] (first compound 0.1 µM); 1.12 in experiment [5] (first compound 1 µM). Also, the relative viability in experiment [5] (first compound 3.162 µM) worked out at 1.03.
